Reference: the PolyMetriX glass transition set
± gives the standard deviation of the reports.

glass transition temperature	SMILES
248.00 °C	*c1ccc(Oc2ccc(-c3ccc(Oc4ccc(N5C(=O)c6ccc(Oc7c(C)cc(Cc8cc(C)c(Oc9ccc%10c(c9)C(=O)N(*)C%10=O)c(C)c8)cc7C)cc6C5=O)cc4)cc3)cc2)cc1 (repeat unit)
198.00 °C	*CCCC(=O)Nc1ccc(Oc2ccc(NC(=O)CCCN3C(=O)c4ccc(C(=O)c5ccc6c(c5)C(=O)N(*)C6=O)cc4C3=O)cc2)cc1 (repeat unit)
148.00 °C	*c1ccc(-c2ccc(-c3ccc(-c4ccc(N(*)c5ccc(C)cc5)cc4)c4c(C)ccc(C)c34)c3c(C)ccc(C)c23)cc1 (repeat unit)
55.80 °C	*/C=C/C1CC(*)C(C(=O)OCCCCCCOc2ccc(-c3ccc(C#N)cc3)cc2)C1C(=O)OCCCCCCOc1ccc(-c2ccc(C#N)cc2)cc1 (repeat unit)
290.00 °C	*Oc1ccc2c(c1)C1(CC2(C)C)CC(C)(C)c2ccc(OC(=O)c3ccc(C(*)=O)cc3)cc21 (repeat unit)
167.00 °C	*Oc1ccc(Oc2ccc(C(=O)c3ccc(C(=O)c4ccc(*)cc4)cc3)cc2)cc1-c1ccc(S(=O)(=O)O)c(C)c1 (repeat unit)
324.00 °C	*c1cc(C(=O)Nc2ccc(-c3nnc(*)o3)cc2)cc(N2C(=O)c3ccccc3C2=O)c1 (repeat unit)
226.00 °C	*CC(=O)Nc1ccc(Oc2cccc(NC(=O)CN3C(=O)c4ccc(C(=O)c5ccc6c(c5)C(=O)N(*)C6=O)cc4C3=O)c2)cc1 (repeat unit)
304.00 °C	*Oc1ccc(NC(=O)c2ccc(NC(=O)c3ccc([Si](C)(C)c4ccc(C(=O)Nc5ccc(C(=O)Nc6ccc(*)cc6)cc5)cc4)cc3)cc2)cc1 (repeat unit)
178.00 °C	*c1cc(C(c2ccc(OCc3cc(OCCN(C)c4ccc(/C=C/C5=CC(=C(C#N)C#N)CC(C)(C)C5)cc4)cc(OCCN(C)c4ccc(/C=C/C5=CC(=C(C#N)C#N)CC(C)(C)C5)cc4)c3)c(N3C(=O)c4ccc(Oc5ccc6c(c5)C(=O)N(*)C6=O)cc4C3=O)c2)(C(F)(F)F)C(F)(F)F)ccc1OCc1cc(OCCN(C)c2ccc(/C=C/C3=CC(=C(C#N)C#N)CC(C)(C)C3)cc2)cc(OCCN(C)c2ccc(/C=C/C3=CC(=C(C#N)C#N)CC(C)(C)C3)cc2)c1 (repeat unit)
182.00 °C	*CC(*)(C)C(=O)NC(=O)Oc1ccc(S(=O)(=O)c2ccc(O)cc2)cc1 (repeat unit)
67.00 °C	*Oc1ccc(CC(NC(=O)CCc2ccc(OC(*)=O)cc2)C(=O)OCCCC)cc1 (repeat unit)
16.00 °C	*O[Si](*)(C)CCCCOc1ccc(C(=O)Oc2ccc(C#N)cc2)cc1 (repeat unit)
55.40 °C	*CCC1C(=O)N(CCCCCCCCCCCC)C(=O)C1* (repeat unit)
223.00 °C	*/C=C/c1ccc(*)c(OCc2cc(OCc3cc(OCCC(C)CCCC(C)C)cc(OCCC(C)CCCC(C)C)c3)cc(OCc3cc(OCC(CC)CCCC)cc(OCC(CC)CCCC)c3)c2)c1 (repeat unit)
376.00 °C	*C(=O)Nc1cc(C(F)(F)F)ccc1Oc1cccc2c(Oc3ccc(C(F)(F)F)cc3NC(=O)c3ccc4c(c3)C(=O)N(c3ccc(Oc5ccc(N6C(=O)c7ccc(*)cc7C6=O)cc5-c5ccccc5)c(-c5ccccc5)c3)C4=O)cccc12 (repeat unit)
223.00 °C	*c1ccc(OC(=O)Nc2ccc(-c3ccc(NC(=O)Oc4ccc(-c5nc(-c6ccc(-c7nc(-c8ccc([N+](=O)[O-])cc8)c(-c8ccc([N+](=O)[O-])cc8)[nH]7)cc6)[nH]c5*)cc4)cc3OC)c(OC)c2)cc1 (repeat unit)

glass transition temperature	SMILES
37.00 °C	*CCCCCCCCCCCCOc1ccc(C(C)(C)c2ccc(OCOc3ccc(C(C)(C)c4ccc(O*)cc4)cc3)cc2)cc1 (repeat unit)
140.00 °C	*c1cccc(NC(=O)c2ccc(OCCOCCOCCOCCOCCOc3ccc(C(=O)Nc4ccc5[nH]c(*)nc5c4)cc3)cc2)c1 (repeat unit)
222.50 °C	*c1ccc(Oc2ccc(-c3ccc(Oc4ccc(N5C(=O)c6ccc(Oc7cc8ccccc8cc7Oc7ccc8c(c7)C(=O)N(*)C8=O)cc6C5=O)cc4)cc3)cc2)cc1 (repeat unit)
320.80 °C	*c1ccc(Oc2ccc3ccc(Oc4ccc(-n5c(=O)c6cc7c(=O)n(*)c(=O)c7cc6c5=O)cc4)cc3c2)cc1 (repeat unit)
195.00 °C	*c1ccc(Oc2ccc(Oc3ccc(-c4cnc5cc(-c6ccc7nc(*)cnc7c6)ccc5n4)cc3)cc2)cc1 (repeat unit)
63.00 °C	*Oc1ccc(CC(NC(=O)Cc2ccc(OC(=O)CC(C)CCC(*)=O)cc2)C(=O)OCC)cc1 (repeat unit)
57.00 °C	*CCOC(=O)C1CCC(C(=O)OCCOc2ccc(C(C)(C)c3ccc(O*)cc3)cc2)CC1 (repeat unit)
220.00 °C	*Oc1ccc(Oc2ccc(C(=O)Nc3ccc(Oc4ccc(S(=O)(=O)c5ccc(Oc6ccc(NC(=O)c7ccc(*)cc7)cc6)cc5)cc4)cc3)cc2)cc1 (repeat unit)
17.00 °C	*Oc1ccc(CC(NC(=O)CCc2ccc(OC(=O)COCCOCC(*)=O)cc2)C(=O)OCCCCCCCCCCCC)cc1 (repeat unit)
151.00 °C	*Oc1ccc(Oc2ccc(C(=O)c3ccc(*)cc3)cc2)cc1C (repeat unit)
68.00 °C	*CCCCCCCCCNC(=O)CCCCC(=O)N* (repeat unit)
371.00 °C	*C(=O)Nc1cc(NC(=O)c2ccc3c(c2)C(=O)N(c2cc(-c4nc5ccccc5o4)cc(N4C(=O)c5ccc(*)cc5C4=O)c2)C3=O)cc(-c2nc3ccccc3[nH]2)c1 (repeat unit)
340.00 °C	*C(=O)Nc1ccc(-c2sc(-c3ccc(NC(=O)c4ccc5c(c4)C(=O)N(c4ccc(Oc6cccc7c(Oc8ccc(N9C(=O)c%10ccc(*)cc%10C9=O)cc8)cccc67)cc4)C5=O)cc3)c(-c3ccccc3)c2-c2ccccc2)cc1 (repeat unit)
245.00 °C	*CC(=O)Nc1ccc(Oc2ccc(NC(=O)COc3ccc4ccccc4c3Sc3c(O*)ccc4ccccc34)cc2)cc1 (repeat unit)
75.00 °C	*Oc1ccc(CC(NC(=O)CCc2ccc(OC(=O)CCC(*)=O)cc2)C(=O)OC(C)CC)cc1 (repeat unit)
243.00 °C	*Oc1ccc(C(CC)(c2ccccc2)c2ccc(OC(=O)c3ccc(C(*)=O)cc3)cc2)cc1 (repeat unit)
98.00 °C	*Oc1c(-c2ccccc2)cc(-c2cc(-c3ccccc3)c(OC(=O)CCCCCCCCC(*)=O)c(-c3ccccc3)c2)cc1-c1ccccc1 (repeat unit)

More lines, now with the values behind:

SMILES	glass transition temperature
*CCCCSS* (repeat unit)	-55.00 °C
*OC(=O)c1ccc(C(=O)OC2CC3CC(*)CC(C2)O3)cc1 (repeat unit)	207.00 °C
*/C(C)=[C](/*)[Ge]([CH3])([CH3])[CH3] (repeat unit)	250.00 °C
*CC(*)(C)C(=O)OCC(=O)N1CCOCC1 (repeat unit)	128.00 °C
*CCC[Si](C)(C)O[Si](C)(C)CCCN1C(=O)c2ccc(C(=O)c3ccc4c(c3)C(=O)N(*)C4=O)cc2C1=O (repeat unit)	68.00 °C
*c1ccc(C(C#N)(C(=O)OCC)C(*)(C#N)C(=O)OCC)cc1 (repeat unit)	108.00 °C
*CC(*)C(=O)[O][Na] (repeat unit)	114.40 °C
*CC(F)(F)CC(*)(C(F)(F)F)C(F)(F)F (repeat unit)	132.00 °C
*/C=C(/*)C(CCC)[Si](C)(C)CCCCCC (repeat unit)	40.00 °C
*CC(*)(C)C(=O)OCCOCCOC (repeat unit)	57.00 °C
*/C(OC)=C(\OC)c1ccc(*)s1 (repeat unit)	91.00 °C
*CC(*)c1ccc(O)cc1 (repeat unit) [Poly(4-hydroxystyrene)]	157.42 ± 0.8 °C
*C[Si](*)(C)C (repeat unit)	-90.00 °C
*CC(*)C(=O)OCCC(F)(F)C(F)(F)C(F)(F)C(F)(F)C(F)(F)C(F)(F)F (repeat unit)	-12.00 °C
*CCN(CCOC(=O)Nc1ccc(C)c(NC(=O)O*)c1)c1ccc([N+](=O)[O-])cc1C (repeat unit)	98.00 °C
*c1ccc(Cc2ccc(S(*)(=O)=O)cc2)cc1 (repeat unit)	227.50 °C
*CC(*)C(=O)N1CCCCC1 (repeat unit)	108.00 °C
*CC(*)c1ccc(C(=O)N2CCCCC2)cc1 (repeat unit)	114.00 °C
*O[Si](*)(CCCOCCOCCOCCOCCOCCOCCOCCOC)CCCOCCOCCOCCOCCOCCOCCOCCOC (repeat unit)	-66.40 °C
*CCC([2H])C(*)([2H])C (repeat unit)	-47.50 °C
*C([2H])([2H])C(*)([2H])C([2H])=C([2H])[2H] (repeat unit)	1.00 °C
*Cc1ccc(COP(=O)(/N=N/c2ccc(C(=O)c3ccc(/N=N/P(=O)(O*)OC)cc3)cc2)OC)cc1 (repeat unit)	48.00 °C
*Sc1cccc(Sc2ccc(Sc3ccc(*)cc3)cc2)c1 (repeat unit)	69.00 °C
*CC(F)(F)C(F)(F)C(F)(F)C(F)(F)COC(=O)NCC(F)(F)C(F)(F)C(F)(F)C(F)(F)CNC(=O)O* (repeat unit)	20.00 °C
*C(=O)c1cccc(C(=O)N(*)c2ccccc2)c1 (repeat unit)	148.00 °C
*O[Si](*)(C)CCc1ccc(O)cc1 (repeat unit)	39.00 °C
*c1ccc2c(c1)C(=O)N(c1cccc(P(=O)(c3ccccc3)c3cccc(N4C(=O)c5ccc(C(*)(C(F)(F)F)C(F)(F)F)cc5C4=O)c3)c1)C2=O (repeat unit)	271.00 °C
*CCCOC(=O)CCCC(=O)O* (repeat unit)	-33.00 °C
*c1nc(C(F)(F)C(F)(F)C(F)(F)F)nc(C(F)(F)C(F)(F)C(F)(F)C(F)(F)C(F)(F)C(*)(F)F)n1 (repeat unit)	-5.00 °C
*CC(*)c1ccccc1C(=O)OCCC(C)C (repeat unit)	68.00 °C
